PMC12203311, “Design, synthesis, in silico and in vitro evaluation of pyrrole–indole hybrids as dual tubulin and aromatase inhibitors with potent anticancer activities” (RSC Advances, 2025)
Like-named read-outs stand apart in the source and are kept apart here.

Key:
RXF 393 = assay: NCI60 five-dose screen; format: cell-based; details: Homo sapiens, RXF 393, renal cancer; for CC50: read-out: LC50 (the source's name)
IGROV1 = assay: NCI60 five-dose screen; format: cell-based; details: Homo sapiens, IGROV-1; IGROV1, ovarian cancer
M14 = assay: NCI60 five-dose screen; format: cell-based; details: Homo sapiens, M14, melanoma; for CC50: read-out: LC50 (the source's name)
SR = assay: NCI60 five-dose screen; format: cell-based; details: Homo sapiens, leukemia; for CC50: read-out: LC50 (the source's name)
porcine brain tubulin = target: T1, porcine brain tubulin (Sus scrofa, UniProt P02550+P02554); assay: Tubulin polymerisation assay (fluorescence-based); format: biochemical; details: 10 µM, 37 °C
T1 construct: a solution containing porcine brain tubulin (2 mg mL^−1); purchased Cytoskeleton BK011P; host or cells: porcine brain (tissue-purified)
T1 sequence (P02554 whole entry): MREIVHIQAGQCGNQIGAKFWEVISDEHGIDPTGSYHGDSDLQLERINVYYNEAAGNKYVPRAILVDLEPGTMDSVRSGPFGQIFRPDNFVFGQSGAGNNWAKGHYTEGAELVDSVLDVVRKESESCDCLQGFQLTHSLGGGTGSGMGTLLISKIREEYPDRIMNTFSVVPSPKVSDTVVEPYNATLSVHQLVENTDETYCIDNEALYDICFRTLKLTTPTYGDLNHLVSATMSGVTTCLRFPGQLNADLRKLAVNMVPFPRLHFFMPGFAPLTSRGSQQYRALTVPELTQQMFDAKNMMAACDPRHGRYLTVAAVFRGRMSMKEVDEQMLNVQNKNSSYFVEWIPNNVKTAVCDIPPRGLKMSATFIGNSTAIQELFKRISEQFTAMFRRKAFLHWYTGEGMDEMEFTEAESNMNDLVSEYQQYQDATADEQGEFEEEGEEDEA
T1 sequence (P02550 whole entry): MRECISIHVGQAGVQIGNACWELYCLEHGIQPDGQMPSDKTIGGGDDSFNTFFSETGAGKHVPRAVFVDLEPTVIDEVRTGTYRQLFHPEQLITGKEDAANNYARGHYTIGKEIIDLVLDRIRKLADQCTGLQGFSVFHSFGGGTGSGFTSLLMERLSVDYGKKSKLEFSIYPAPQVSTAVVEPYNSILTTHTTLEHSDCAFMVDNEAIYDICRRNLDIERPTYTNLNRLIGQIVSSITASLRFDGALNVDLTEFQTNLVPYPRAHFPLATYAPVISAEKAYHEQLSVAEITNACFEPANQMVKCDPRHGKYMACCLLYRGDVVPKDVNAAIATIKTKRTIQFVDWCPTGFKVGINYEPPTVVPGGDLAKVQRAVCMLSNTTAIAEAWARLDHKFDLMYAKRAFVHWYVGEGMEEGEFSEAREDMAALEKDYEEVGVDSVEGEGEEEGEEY
Protocol: The tubulin polymerisation experimental protocol followed the method described in this literature.[28] The experimental was using fluorescence-based assay kit (Cytoskeleton, catalog no. BK011P). In Brief, 5 µL of test compounds was added to a 96-well plate, then mix with 50 µL of a solution containing porcine brain tubulin (2 mg mL^−1) in buffer with 20% glycerol and 1 mM GTP. A microplate reader (Varioskan™ LUX multimode microplate reader, Thermo Scientific™) was used to measure fluorescence intensity every 60 seconds for 60 minutes, with excitation at 360 nm and emission at 450 nm, maintained at 37 °C throughout the experiment.

UACC-62 = assay: NCI60 five-dose screen; format: cell-based; details: Homo sapiens, UACC-62, melanoma; for CC50: read-out: LC50 (the source's name)
MCF7 = assay: NCI60 five-dose screen; format: cell-based; details: Homo sapiens; for CC50: read-out: LC50 (the source's name)
SK-MEL-2 = assay: NCI60 five-dose screen; format: cell-based; details: Homo sapiens, SK-MEL-2, melanoma; for CC50: read-out: LC50 (the source's name)
COLO 205 = assay: NCI60 five-dose screen; format: cell-based, human; details: for CC50: read-out: LC50 (the source's name)
786-0 = assay: NCI60 five-dose screen; format: cell-based; details: Homo sapiens, 786-0, renal cancer; for CC50: read-out: LC50 (the source's name)
EKVX = assay: NCI60 five-dose screen; format: cell-based; details: Homo sapiens, NSC lung cancer; for CC50: read-out: LC50 (the source's name)
MDA-MB-435 = assay: NCI60 five-dose screen; format: cell-based, human; details: Homo sapiens; for CC50: MDA-MB-435, MDA-MB-435, melanoma, read-out: LC50 (the source's name); for GI50: MDA-MB-435, melanoma
NCI-H23 = assay: NCI60 five-dose screen; format: cell-based; details: Homo sapiens, NCI-H23, NSC lung cancer; for CC50: read-out: LC50 (the source's name)
SK-MEL-5 = assay: NCI60 five-dose screen; format: cell-based, human; details: Homo sapiens; for CC50: SK-MEL-5, SK-MEL-5, melanoma, read-out: LC50 (the source's name); for GI50: SK-MEL-5, melanoma
[1] = Homo sapiens, COLO 205, COLO 205, colon cancer
[2] = Homo sapiens, COLO 205, colon cancer

SMILES	GI50 (RXF 393)	CC50 (RXF 393)	GI50 (IGROV1)	GI50 (M14)	CC50 (M14)	GI50 (UACC-62)	CC50 (UACC-62)	CC50 (MCF7; MCF7, breast cancer)	GI50 (SK-MEL-2)	CC50 (SK-MEL-2)	GI50 (COLO 205; [2])	GI50 (786-0)	CC50 (786-0)	GI50 (EKVX)	CC50 (EKVX)	GI50 (MDA-MB-435)	GI50 (NCI-H23)	CC50 (NCI-H23)	CC50 (SK-MEL-5)	GI50 (SK-MEL-5)	further results
O=C(N/N=C/c1cc([N+](=O)[O-])c[nH]1)c1[nH]c2ccc(Br)cc2c1-c1ccccc1 [Derivative 3q, (E)-5-Bromo-N′-((4-nitro-1H-pyrrol-2-yl)methylene)-3-phenyl-1H-indole-2-carbohydrazide]	734 nM	> 100000 nM	2060 nM	574 nM	> 100000 nM	538 nM	> 100000 nM	> 100000 nM	1300 nM	> 100000 nM	1280 nM	2210 nM	> 100000 nM	> 100000 nM	> 100000 nM	226 nM	2570 nM	> 100000 nM	69900 nM	671 nM	GI50 (SR): 405 nM; CC50 (SR): > 100000 nM; tubulin inhibition (porcine brain tubulin): no tubulin inhibition properties; GI50 (MCF7; MCF7, breast cancer): 354 nM; CC50 (COLO 205; [1]): > 100000 nM; CC50 (MDA-MB-435): 8780 nM
O=C(N/N=C/c1cc[nH]c1)c1[nH]c2ccc(Br)cc2c1-c1ccccc1 [Derivative 3b, (E)-N′-((1H-Pyrrol-3-yl)methylene)-5-bromo-3-phenyl-1H-indole-2-carbohydrazide]	1780 nM	46500 nM	1270 nM	1580 nM	45800 nM	1030 nM	41300 nM	49800 nM	2480 nM	38400 nM	1230 nM	5460 nM	77200 nM	4410 nM	41700 nM	463 nM	1870 nM	33900 nM	14600 nM	1100 nM	tubulin inhibition (porcine brain tubulin): weak tubulin inhibitors; GI50 (MCF7; MCF7, breast cancer): 436 nM; CC50 (COLO 205; [1]): 20400 nM; CC50 (MDA-MB-435): 15800 nM
O=C(N/N=C/c1[nH]ccc1Cl)c1[nH]c2ccc(Br)cc2c1-c1ccccc1 [Derivative 3g, (E)-5-Bromo-N′-((3-chloro-1H-pyrrol-2-yl)methylene)-3-phenyl-1H-indole-2-carbohydrazide]	346 nM	42100 nM	734 nM	689 nM	45400 nM	411 nM	37000 nM	42200 nM	1070 nM	38700 nM	1660 nM	2580 nM	50200 nM	2660 nM	38100 nM	222 nM	884 nM	34400 nM	63000 nM	427 nM	tubulin inhibition (porcine brain tubulin): weak tubulin inhibitors; GI50 (MCF7; MCF7, breast cancer): 376 nM; CC50 (COLO 205; [1]): 40300 nM; CC50 (MDA-MB-435): 25500 nM
O=C(N/N=C/c1cc(Br)c[nH]1)c1[nH]c2ccc(Br)cc2c1-c1ccccc1 [Derivative 3e, (E)-5-Bromo-N′-((4-bromo-1H-pyrrol-2-yl)methylene)-3-phenyl-1H-indole-2-carbohydrazide]	497 nM	37900 nM	440 nM	270 nM	20200 nM	439 nM	17700 nM	30700 nM	322 nM	38100 nM	192 nM	727 nM	55900 nM	620 nM	34300 nM	207 nM	298 nM	26900 nM	1220 nM	195 nM	RFU in tubulin polymerization assay (porcine brain tubulin): ~50 arbitrary units; GI50 (MCF7; MCF7, breast cancer): 294 nM; CC50 (COLO 205; COLO 205, colon cancer): 884 nM; CC50 (COLO 205; [1]): 890 nM; CC50 (MDA-MB-435): 24300 nM
O=C(N/N=C/c1ccc[nH]1)c1[nH]c2ccc(Br)cc2c1-c1ccccc1 [Derivative 3a, (E)-N′-((1H-Pyrrol-2-yl)methylene)-5-bromo-3-phenyl-1H-indole-2-carbohydrazide]	339 nM	35100 nM	404 nM	304 nM	41400 nM	99 nM	8030 nM	29100 nM	357 nM	38800 nM	261 nM	791 nM	23900 nM	1230 nM	33400 nM	105 nM	504 nM	37700 nM	15700 nM	302 nM	LC50 (concentration causing 50% net cell kill) (IGROV1): 14600 nM; GI50 (SR): 160 nM; CC50 (SR): > 100000 nM; RFU in tubulin polymerization assay (porcine brain tubulin): ~55 arbitrary units; GI50 (MCF7; MCF7, breast cancer): 136 nM; CC50 (COLO 205; [1]): 35100 nM
CCc1c[nH]c(/C=N/NC(=O)c2[nH]c3ccc(Br)cc3c2-c2ccccc2)c1 [Derivative 3t, (E)-5-Bromo-N′-((4-ethyl-1H-pyrrol-2-yl)methylene)-3-phenyl-1H-indole-2-carbohydrazide]	217 nM	21000 nM	888 nM	337 nM	38400 nM	442 nM	32100 nM	33800 nM	454 nM	43800 nM	207 nM	646 nM	38500 nM	448 nM	35600 nM	230 nM	408 nM	37400 nM	6960 nM	279 nM	LC50 (concentration causing 50% net cell kill) (IGROV1): 48600 nM; GI50 (SR): 446 nM; CC50 (SR): > 100000 nM; RFU in tubulin polymerization assay (porcine brain tubulin): ~55 arbitrary units; GI50 (MCF7; MCF7, breast cancer): 375 nM; CC50 (MDA-MB-435): 38700 nM
O=C(N/N=C/c1ccc(C(=O)N2CCOCC2)[nH]1)c1[nH]c2ccc(Br)cc2c1-c1ccccc1 [Derivative 3n, (E)-5-Bromo-N′-((5-(morpholine-4-carbonyl)-1H-pyrrol-2-yl)methylene)-3-phenyl-1H-indole-2-carbohydrazide]	1060 nM	14700 nM	6690 nM	1920 nM	64200 nM	864 nM	63700 nM	77800 nM	2800 nM	48300 nM	3120 nM	2860 nM	80700 nM	7510 nM	> 100000 nM	392 nM	2830 nM	69800 nM	17000 nM	1480 nM	GI50 (SR): 405 nM; CC50 (SR): 38900 nM; GI50 (MCF7; MCF7, breast cancer): 2460 nM; CC50 (COLO 205; [1]): 37500 nM; CC50 (MDA-MB-435): 55400 nM
Cn1cccc1/C=N/NC(=O)c1[nH]c2ccc(Br)cc2c1-c1ccccc1 [Derivative 3d, (E)-5-Bromo-N′-((1-methyl-1H-pyrrol-2-yl)methylene)-3-phenyl-1H-indole-2-carbohydrazide]	280 nM	> 100000 nM	621 nM	324 nM	> 100000 nM	283 nM	> 100000 nM	> 100000 nM	366 nM	> 100000 nM	366 nM	29400 nM	> 100000 nM	641 nM	> 100000 nM	151 nM	447 nM	> 100000 nM	> 100000 nM	196 nM	tubulin inhibition (porcine brain tubulin): weak tubulin inhibitors; GI50 (MCF7; MCF7, MCF-7 breast cancer cells): 72 nM; CC50 (COLO 205; [1]): > 100000 nM
